These results are taken from patent publication US10703748B2, “Diazanaphthalen-3-yl carboxamides and preparation and use thereof” (Samumed, LLC, priority 2017, dated 2020).

One assay concerns the target DYRK1A kinase (Homo sapiens, UniProt Q13627). Kind of assay: DYRK1A kinase activity (Ser/Thr 18 peptide Z-lyte FRET assay).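 Also: kinase activity read as coumarin/fluorescein emission ratio after development step, with unphosphorylated and phosphorylated peptide forms setting 0% and 100% controls, values from dose-response curves.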 Format: biochemical. The note with it: recombinant DYRK1A, 30 μM ATP, one hour at room temperature.
A further assay has as its target GSK3β kinase (Homo sapiens, UniProt P49841). Kind of assay: GSK3β kinase activity (Ser/Thr 09 peptide Z-lyte FRET assay). Format: biochemical. The note with it: recombinant kinase, 46 μM ATP, one hour at room temperature; read-out: EC50.
Assay [1] deals with SW480 colon carcinoma cells. Kind of assay: Cell viability assay (CellTiter-Glo). The note with it: Homo sapiens; for EC50: SW480, 96 h; for inhibition at 10 µM: SW480, read-out: percent inhibition at 10 μM. Background: ATP-based viability assays read luminescence as a measure of living cells.
The subject of assay [2] is Wnt-responsive Sp5-Luc reporter in SW480 colon carcinoma cells. Kind of assay: Screening assay for Wnt activity (Sp5-Luc reporter gene assay). The following applies: Homo sapiens; for EC50: SW480; for inhibition at 10 µM: SW480, read-out: percent inhibition at 10 μM. Background: Reporter assays use an easily measured gene product as a stand-in for the process of interest.

For a further assay, the system named is IL-6. Kind of assay: IL-6 inhibition in LPS-stimulated human peripheral blood mononuclear cells (HTRF). The following applies: Homo sapiens, PBMC; for EC50: 22 h; for inhibition at 10 µM: read-out: percentage in parentheses after EC50 >10. (In general: Time-resolved FRET reads energy transfer from a long-lived donor to a nearby acceptor.)
The test system of assay [3] is α-smooth muscle actin (aSMA) positive LL29 cells. Put plainly: Inhibition of the fibrotic process: αSMA staining in TGF-β1 treated LL29 fibroblasts from IPF patients. The note with it: Homo sapiens, Fibroblast; for EC50: 96 h; for inhibition at 10 µM: read-out: percentage in parentheses after EC50 >10.

Chain of GSK3β kinase (P49841 whole entry): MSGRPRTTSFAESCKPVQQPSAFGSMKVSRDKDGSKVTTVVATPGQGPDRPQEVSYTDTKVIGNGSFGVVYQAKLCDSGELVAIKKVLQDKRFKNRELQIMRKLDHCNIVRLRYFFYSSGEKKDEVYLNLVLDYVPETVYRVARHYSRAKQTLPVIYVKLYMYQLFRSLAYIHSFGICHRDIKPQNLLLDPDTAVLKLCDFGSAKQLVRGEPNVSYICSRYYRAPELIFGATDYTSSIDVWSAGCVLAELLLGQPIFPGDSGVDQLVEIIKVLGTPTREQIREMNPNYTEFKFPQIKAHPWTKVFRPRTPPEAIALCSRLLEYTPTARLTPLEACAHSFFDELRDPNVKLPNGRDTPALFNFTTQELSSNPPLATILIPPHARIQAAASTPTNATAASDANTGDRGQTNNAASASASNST

With `CN1CCC(N(C)c2cc(C(=O)Nc3cc4cc(-c5cn(C)nn5)cnc4cn3)ccn2)CC1` [Compound 3102, 2-(Methyl(1-methylpiperidin-4-yl)amino)-N-(3-(1-methyl-1H-1,2,3-triazol-4-yl)-1,7-naphthyridin-6-yl)isonicotinamide], the EC50 on DYRK1A kinase was 88 nM; at GSK3β kinase it was over 10000 nM; in assay [1] it was 6.91 µM; in assay [2], over 10 µM; with IL-6, over 10 µM; in assay [3], over 10 µM. Moreover, the inhibition at 10 µM in assay [2] worked out at 28.5%; in the assay on IL-6 it was 0%; in assay [3], 50%.
As for `CCN(CC)CC(=O)Nc1cc2cc(-c3cnn(C)c3CN3CCCCC3)cnc2cn1` [Compound 3003, 2-(Diethylamino)-N-(3-(1-methyl-5-(piperidin-1-ylmethyl)-1H-pyrazol-4-yl)-1,7-naphthyridin-6-yl)acetamide], the EC50 is 67 nM on DYRK1A kinase; 1520 nM at GSK3β kinase; over 10 µM in assay [1]; over 10 µM in assay [2]; over 10 µM in the assay on IL-6; over 10 µM in assay [3]. Besides, the inhibition at 10 µM in assay [1] was 35.9%; in assay [2] it was 33.5%; in the assay with IL-6, 7.3%; in assay [3], 27.8%.
Take `CN1CC(COc2cncc(-c3ccc4cnc(NC(=O)c5ccc(F)cc5)nc4c3)n2)C1` [Compound 4595, 4-Fluoro-N-(7-(6-((1-methylazetidin-3-yl)methoxy)pyrazin-2-yl)quinazolin-2-yl)benzamide]: the concentration for a half-maximal effect (EC50) at DYRK1A kinase is 38 nM; at GSK3β kinase it was over 10000 nM; in assay [1], 4.57 µM; in assay [2], over 10 µM; in the assay with IL-6 it was over 10 µM; in assay [3], over 10 µM. Moreover, the figures for the inhibition at 10 µM (in assay [2]; in the assay on IL-6; in assay [3]) were 20.1%, 5.3% and 2.8%, respectively.
`Cc1nnc(-c2cnc3cnc(NC(=O)C4CCN(C(=O)c5ccccc5)CC4)cc3c2)s1` [Compound 3439, 1-Benzoyl-N-(3-(5-methyl-1,3,4-thiadiazol-2-yl)-1,7-naphthyridin-6-yl) piperidine-4-carboxamide]: the EC50 at DYRK1A kinase was 100 nM; at GSK3β kinase, 463 nM; in assay [1], over 10 µM; in assay [2] it was over 10 µM; in the assay on IL-6 it was over 10 µM; in assay [3] it was over 10 µM. The inhibition at 10 µM in assay [1] amounted to 16.8%; in assay [2], 2.1%; in the assay on IL-6 it was 12.7%; in assay [3], 14.3%.
For `Cc1nnc(-c2ccc3cnc(NC(=O)c4ccnc(N5CCN(C)CC5)c4)nc3c2)s1` [Compound 1656, N-(7-(5-Methyl-1,3,4-thiadiazol-2-yl)quinazolin-2-yl)-2-(4-methylpiperazin-1-yl)isonicotinamide], the EC50 was 65 nM on DYRK1A kinase; 340 nM at GSK3β kinase; 2.21 µM in assay [1]; 1.2 µM in assay [2]; over 10 µM with IL-6; 1.76 µM in assay [3]. The inhibition at 10 µM with IL-6 turned out to be 6%.
For `CN(C)Cc1ccc(C(=O)Nc2cc3cc(-c4cnn(C)c4)cnc3cn2)cc1` [Compound 2890, 4-((Dimethylamino)methyl)-N-(3-(1-methyl-1H-pyrazol-4-yl)-1,7-naphthyridin-6-yl)benzamide], the concentration for a half-maximal effect (EC50) at DYRK1A kinase is 35 nM; on GSK3β kinase it was over 10000 nM; in assay [1], 3.86 µM; in assay [2], 3.58 µM; with IL-6 it was over 10 µM; in assay [3] it was over 10 µM. Moreover, the inhibition at 10 µM in the assay on IL-6 was 8.6%; in assay [3], 29.4%.
As to `Cc1nnc(-c2cc3cc(NC(=O)c4ccnc(N5CCN(C)CC5)c4)ncc3cn2)s1` [Compound 4377, N-(6-(5-Methyl-1,3,4-thiadiazol-2-yl)-2,7-naphthyridin-3-yl)-2-(4-methylpiperazin-1-yl)isonicotinamide], the 50% effective concentration (EC50) at DYRK1A kinase is 253 nM; at GSK3β kinase, over 10000 nM; in assay [1], 5.4 µM; in assay [2], over 10 µM; with IL-6 it was over 10 µM; in assay [3] it was 2.96 µM. The figures for the inhibition at 10 µM (in assay [2]; with IL-6) were 28.6% and 5.7%, respectively.
For the compound `CN1CCN(c2cc(C(=O)Nc3cc4cc(-c5cnc(N)s5)cnc4cn3)ccn2)CC1` [Compound 3403, N-(3-(2-Aminothiazol-5-yl)-1,7-naphthyridin-6-yl)-2-(4-methylpiperazin-1-yl)isonicotinamide], the EC50 on DYRK1A kinase was 581 nM; at GSK3β kinase, over 10000 nM; in assay [1] it was 1.43 µM; in assay [2], 0.849 µM; with IL-6, over 10 µM; in assay [3], 2.43 µM. Also, in the assay with IL-6, the inhibition at 10 µM came out at 1.8%.
Regarding `Cn1cc(-c2ccc3cnc(NC(=O)C(C)(C)F)nc3c2)nn1` [Compound 1239, 2-Fluoro-2-methyl-N-(7-(1-methyl-1H-1,2,3-triazol-4-yl)quinazolin-2-yl) propanamide], the EC50 is 171 nM at DYRK1A kinase; 112 nM at GSK3β kinase; over 10 µM in assay [1]; over 10 µM in assay [2]; over 10 µM with IL-6; over 10 µM in assay [3]. Moreover, the inhibition at 10 µM is 17.2% in assay [1], 47.4% in assay [2], 7.3% in the assay on IL-6 and 13.5% in assay [3].
With `Cc1ncc(-c2ccc3cnc(NC(=O)N4CCC(N5CCOCC5)CC4)nc3c2)o1` [Compound 1472, N-(7-(2-Methyloxazol-5-yl)quinazolin-2-yl)-4-morpholinopiperidine-1-carboxamide], the EC50 at DYRK1A kinase is 246 nM; on GSK3β kinase, 2330 nM; in assay [1] it was over 10 µM; in assay [2], over 10 µM; with IL-6, over 10 µM; in assay [3] it was over 10 µM. Further, the inhibition at 10 µM in assay [1] is 16.7%; in assay [2] it was 1.6%; in the assay on IL-6 it was 7.6%; in assay [3], 33.9%.
`CN(C)C1CCN(c2cc(C(=O)Nc3cc4cc(-c5cn(C)nn5)ncc4cn3)ccn2)CC1` [Compound 4003, 2-(4-(Dimethylamino)piperidin-1-yl)-N-(6-(1-methyl-1H-1,2,3-triazol-4-yl)-2,7-naphthyridin-3-yl)isonicotinamide]: the 50% effective concentration (EC50) was 56 nM on DYRK1A kinase; 1720 nM at GSK3β kinase; over 10 µM in assay [1]; over 10 µM in assay [2]; over 10 µM with IL-6; over 10 µM in assay [3]. Besides, the inhibition at 10 µM in assay [1] is 50.4%; in assay [2], 34%; in the assay with IL-6, 3.7%; in assay [3], 24.6%.
On to `O=C(Nc1cc2nc(-c3cncc(OCC4CNC4)n3)ccc2cn1)c1ccc(F)cc1` [Compound 892, N-(2-(6-(Azetidin-3-ylmethoxy)pyrazin-2-yl)-1,6-naphthyridin-7-yl)-4-fluorobenzamide], for which the EC50 was 142 nM on DYRK1A kinase; over 10000 nM at GSK3β kinase; 2.06 µM in assay [1]; 4.28 µM in assay [2]; over 10 µM with IL-6; 3.98 µM in assay [3]. Also, the inhibition at 10 µM with IL-6 came to 2.5%.
Take `CN1CCC(c2nc(C(=O)Nc3cc4nc(-c5cnn(C)c5)ccc4cn3)co2)CC1` [Compound 242, N-(2-(1-Methyl-1H-pyrazol-4-yl)-1,6-naphthyridin-7-yl)-2-(1-methylpiperidin-4-yl)oxazole-4-carboxamide]: the 50% effective concentration (EC50) was found to be 60 nM at DYRK1A kinase; 6850 nM at GSK3β kinase; 0.541 µM in assay [1]; 0.268 µM in assay [2]; 3.62 µM in the assay with IL-6; 1.42 µM in assay [3].
As to `Cc1nnc(-c2cnc3cnc(NC(=O)c4ccnc(SC5CCN(C)CC5)c4)cc3c2)s1` [Compound 3474, N-(3-(5-Methyl-1,3,4-thiadiazol-2-yl)-1,7-naphthyridin-6-yl)-2-((1-methylpiperidin-4-yl)thio)isonicotinamide], the EC50 at DYRK1A kinase is 71 nM; at GSK3β kinase it was over 10000 nM; in assay [1], over 10 µM; in assay [2] it was over 10 µM; in the assay with IL-6, over 10 µM; in assay [3] it was over 10 µM. The inhibition at 10 µM in assay [1] is 17.1%; in assay [2], 1.9%; with IL-6, 3.9%; in assay [3] it was 37%.
Take `Cn1cc(-c2ccc3cnc(NC(=O)C4CCN(S(C)(=O)=O)CC4)nc3c2)cn1` [Compound 979, N-(7-(1-methyl-1H-pyrazol-4-yl)quinazolin-2-yl)-1-(methylsulfonyl)piperidine-4-carboxamide]: the EC50 is over 10000 nM on DYRK1A kinase; over 10000 nM at GSK3β kinase; over 10 µM in assay [1]; over 10 µM in assay [2]; over 10 µM in the assay with IL-6; over 10 µM in assay [3]. Besides, the inhibition at 10 µM in assay [1] was found to be 16.7%; in assay [2] it was 20.3%; in the assay with IL-6, 6.4%; in assay [3], 23.2%.

What is called EC50 is the concentration needed to bring the measured effect to its halfway point.
